Data: publication PMC10366102, “Dose escalation and expansion cohorts in patients with advanced breast cancer in a Phase I study of the CDK7-inhibitor samuraciclib” (Nature Communications, 2023)
pIC50: −log10 of the molar value. Entries after “also recorded” stand apart in the source; their conditions may differ. Read-outs that look alike come from different tables or passages of the source.

Tests used:
[1] = parameters: method as in ref IB; conditions: dog microsomes; ref IB; cited from earlier work
CYP2B6 = tested on: CYP2B6; parameters: method as in ref IB; conditions: human microsomes; ref IB; cited from earlier work
CYP3A4 = tested on: CYP3A4; parameters: method as in ref IB; conditions: separate assay, ref IB, cited from earlier work
[2] = tested on: phosphorylation of RNA Pol II, CDK1 and 2; parameters: method as in ref IB; conditions: in vitro and in vivo, tumour and normal cells; ref IB; cited from earlier work
[3] = Module 2A trough PK of samuraciclib and fulvestrant; type: in vivo, human
Excerpt: PK parameters were derived using standard non-compartmental methods.
o. Radionuclide Bone Scans, Whole Body should be performed at Screening. See also footnote a.
• If at Screening bone lesions were identified, scans will be repeated during the active treatment phase and during follow-up visits every 16 weeks (± 7 days) from Cycle 1 Day
1, and at the time of confirmation of CR.
• If no bone lesions were identified at Screening, bone scans will only be performed when clinically indicated (i.e., patient describes new or worsening bone pain or has
increasing alkaline phosphatase level or other signs and symptoms of new/progressing bone metastases) but are required at the time of confirmation of CR. New abnormalities
found on subsequent bone scans must be confirmed by CT scan with bone windows or MRI.
p. Adverse Event Reporting : Serious Adverse Events (SAEs) must be reported from the time the patient provides informed consent through and including 28 calendar days after the last
administration of the study drug. SAEs occurring after the active reporting period has ended should be reported if the investigator becomes aware of them. All SAEs that the investigator
believes have at least a reasonable possibility of being related to the study drugs are to be reported to the Sponsor. All AEs (serious and non-serious) should be recorded on the eCRF […]

reticulocyte counts = experiment: Reticulocyte counts in Module 1A patients; type: in vivo, human
Excerpt: Enumeration of reticulocyte counts was used as a biomechanical PDc marker, based on the mechanistic r ationale and non-clinical d ata d escrib ed in Section V1.1.4. A cr oss all dose l evels […]
2). Subjects who cam e o ff treatment fo r unrelated reasons have shown a s ubsequent increase […]
induced and reversible.Of note, across dose levels and cycl es anaemia has been uncommon to date (see IB). However, it is to be recognized that onl y few Module 1A patients have stayed on CT7001 for four months or longer.
Fi g u re 2: Average reticulocyte counts across first three dosing cohorts (120, 240 & 480 […]
Reticulocyte co unts for subj ects across the three cohorts were monitored over time. Values on treatment were nor malized to the avera ge value observed for each patient fro m scree ni ng a nd p re-treatment c ycle 0 sa mp les. Data are mean ± standard error of the mean for between n=35 and n=1 samples (denoted by symbol color). Linear […]
V1.1.5.4 Minimum Biologically Active Dos e (MBA D)
The study’s SRC originally d eclar ed 240 mg OD as MBAD based on observed target toxicit y (diarrhoea), target-medi ated PDc ef fect on reticul ocyt e counts and preliminar y si gnals of anti-tumour activity. This prompted the opening of a cohort with paired breast cancer biopsies at […]
similar biological activity as observed for 240 m g OD, including PDc and anti-tumour ef fects. […]

CC(C)c1cnn2c(NCc3ccccc3)cc(NC[C@H]3CCNC[C@@H]3O)nc12 [samuraciclib, Samuraciclib]
Intrinsic clearance [1]: intermediate
pIC50 (CYP2B6): < 4.30
Phosphorylation of RNA Pol II, CDK1 and 2 [2]: inhibits the phosphorylation
Interaction between samuraciclib and fulvestrant PK [3]: no fulvestrant interaction; also recorded: did not indicate an interaction; also recorded: No clinical PK interactions
Reticulocyte counts (reticulocyte counts; across all dose levels tested in Module 1A): decline in reticulocyt
Increase of reticulocyte counts after coming off treatment (reticulocyte counts; p = 0.08): 25%
